Test results: ChEMBL document CHEMBL1649156, “Antianaerobic activity of sulopenem compared to six other agents” (2009)
≈ marks a conversion by molar mass, not a printed value.

Tests used:
Type in all cases: functional
Prevotella baroniae = test: Antimicrobial activity in Prevotella baroniae by CLSI agar dilution method; details: Segatella baroniae
Hoylesella oralis = test: Antimicrobial activity in Prevotella oralis group by CLSI agar dilution method
Prevotella veroralis = test: Antimicrobial activity in Prevotella veroralis by CLSI agar dilution method
Prevotella bergensis = test: Antimicrobial activity in Prevotella bergensis by CLSI agar dilution method; details: Hallella bergensis
Prevotella salivae = test: Antimicrobial activity in Prevotella salivae by CLSI agar dilution method; details: Segatella salivae
Hoylesella loescheii = test: Antimicrobial activity in Prevotella loescheii by CLSI agar dilution method
Prevotella sp. = test: Antimicrobial activity in Prevotella sp.by CLSI agar dilution method
[1] = test system: Porphyromonas asaccharolytica; test: Antimicrobial activity in Porphyromonas asaccharolytica by CLSI agar dilution method
Fusobacterium nucleatum = test: Antimicrobial activity in Fusobacterium nucleatum by CLSI agar dilution method
[2] = test system: Fusobacterium necrophorum; test: Antimicrobial activity in Fusobacterium necrophorum by CLSI agar dilution method
Fusobacterium mortiferum = test: Antimicrobial activity in Fusobacterium mortiferum by CLSI agar dilution method
Fusobacterium varium = test: Antimicrobial activity in Fusobacterium varium by CLSI agar dilution method
Finegoldia magna = test: Antimicrobial activity in Finegoldia magna by CLSI agar dilution method
Parvimonas micra = test: Antimicrobial activity in Micromonas micros by CLSI agar dilution method
[3] = test system: Peptostreptococcus anaerobius; test: Antimicrobial activity in Peptostreptococcus anaerobius by CLSI agar dilution method
[4] = test system: Peptoniphilus asaccharolyticus; test: Antimicrobial activity in Peptoniphilus asaccharolyticus by CLSI agar dilution method
Anaerococcus tetradius = test: Antimicrobial activity in Anaerococcus tetradius by CLSI agar dilution method
Anaerococcus prevotii = test: Antimicrobial activity in Anaerococcus prevotii by CLSI agar dilution method
Lactobacillus = test: Antimicrobial activity in Lactobacillus by CLSI agar dilution method
Bifidobacterium = test: Antimicrobial activity in Bifidobacterium by CLSI agar dilution method
Cutibacterium acnes = test: Antimicrobial activity in Propionibacterium acnes by CLSI agar dilution method
Actinomyces = test: Antimicrobial activity in Actinomyces by CLSI agar dilution method
Eggerthella lenta [5] = test: Antimicrobial activity in Eggerthella lenta by CLSI agar dilution method
Clostridium perfringens = test: Antimicrobial activity in Clostridium perfringens by CLSI agar dilution method
Clostridioides difficile = test: Antimicrobial activity in Clostridium difficile by CLSI agar dilution method
Clostridium sp. = test: Antimicrobial activity in Clostridium sp. by CLSI agar dilution method
Clostridium tertium = test: Antimicrobial activity in Clostridium tertium by CLSI agar dilution method
Thomasclavelia ramosa = test: Antimicrobial activity in Clostridium ramosum by CLSI agar dilution method
Clostridium cadaveris = test: Antimicrobial activity in Clostridium cadaveris by CLSI agar dilution method
[6] = test system: Paraclostridium bifermentans; test: Antimicrobial activity in Clostridium bifermentans by CLSI agar dilution method
[Clostridium] innocuum = Antimicrobial activity in Clostridium innocuum by CLSI agar dilution method
[7] = test system: Paeniclostridium sordellii; test: Antimicrobial activity in Clostridium sordellii by CLSI agar dilution method; details: Paraclostridium sordellii
Clostridium butyricum = test: Antimicrobial activity in Clostridium butyricum by CLSI agar dilution method
[8] = test system: Enterocloster clostridioformis; test: Antimicrobial activity in Clostridium clostridioforme by CLSI agar dilution method
Bacteroides fragilis [9] = test: Antimicrobial activity in Bacteroides fragilis by CLSI agar dilution method
[10] = test system: Bacteroides thetaiotaomicron; test: Antimicrobial activity in Bacteroides thetaiotaomicron by CLSI agar dilution method
Bacteroides ovatus = test: Antimicrobial activity in Bacteroides ovatus by CLSI agar dilution method
Phocaeicola vulgatus = test: Antimicrobial activity in Bacteroides vulgatus by CLSI agar dilution method
[11] = test system: Parabacteroides distasonis; test: Antimicrobial activity in Bacteroides distasonis by CLSI agar dilution method
Bacteroides uniformis = test: Antimicrobial activity in Bacteroides uniformis by CLSI agar dilution method
Bacteroides stercoris = test: Antimicrobial activity in Bacteroides stercoris by CLSI agar dilution method
Prevotella bivia = test: Antimicrobial activity in Prevotella bivia by CLSI agar dilution method
Prevotella buccae = test: Antimicrobial activity in Prevotella buccae by CLSI agar dilution method; details: Segatella buccae
[12] = test system: Prevotella melaninogenica; test: Antimicrobial activity in Prevotella melaninogenica by CLSI agar dilution method
Prevotella denticola = test: Antimicrobial activity in Prevotella denticola by CLSI agar dilution method
Prevotella intermedia = test: Antimicrobial activity in Prevotella intermedia by CLSI agar dilution method
Prevotella nigrescens = test: Antimicrobial activity in Prevotella nigrescens by CLSI agar dilution method
Prevotella corporis = test: Antimicrobial activity in Prevotella corporis by CLSI agar dilution method
Prevotella disiens = test: Antimicrobial activity in Prevotella disiens by CLSI agar dilution method
Tissierella praeacuta = test: Antimicrobial activity in Clostridium hastiforme by CLSI agar dilution method
Bacteroides fragilis [13] = test: Antimicrobial activity in Bacteroides fragilis ATCC 25285 by CLSI agar dilution method
[14] = test system: Bacteroides thetaiotaomicron; test: Antimicrobial activity in Bacteroides thetaiotaomicron ATCC 29741 by CLSI agar dilution method
Eggerthella lenta [15] = test: Antimicrobial activity in Eggerthella lenta ATCC 43055 by CLSI agar dilution method
Porphyromonas gingivalis = test: Antimicrobial activity in Porphyromonas gingivalis by CLSI agar dilution method

With `C[C@@H](O)[C@H]1C(=O)N2C(C(=O)O)=C(S[C@H]3CC[S@@+]([O-])C3)S[C@H]12` [SULOPENEM] the MIC (Prevotella baroniae) was 0.06 µg/mL (≈ 0.172 µM), the MIC (Hoylesella oralis) was ≤ 0.016 µg/mL and the MIC (Prevotella veroralis) was 0.06 µg/mL (≈ 0.172 µM). The MIC (Prevotella bergensis) was 0.125 µg/mL (≈ 0.358 µM), the MIC (Prevotella salivae) was 0.06 µg/mL (≈ 0.172 µM) and the MIC (Hoylesella loescheii) was 0.125 µg/mL (≈ 0.358 µM). For the same compound, the MIC (Prevotella sp.) was 0.03 µg/mL (≈ 0.0858 µM), the MIC [1] was ≤ 0.016 µg/mL and the MIC (Fusobacterium nucleatum) was ≤ 0.016 µg/mL. The MIC50 (Fusobacterium nucleatum) was ≤ 0.016 µg/mL, the MIC90 (Fusobacterium nucleatum) was 0.03 µg/mL (≈ 0.0858 µM) and the MIC [2] was ≤ 0.016 µg/mL. For the same compound, the MIC50 [2] was ≤ 0.016 µg/mL, the MIC50 (Fusobacterium mortiferum) was 0.5 µg/mL (≈ 1.43 µM) and the MIC90 (Fusobacterium mortiferum) was 0.5 µg/mL (≈ 1.43 µM). The MIC50 (Fusobacterium varium) was 0.5 µg/mL (≈ 1.43 µM), the MIC90 (Fusobacterium varium) was 0.5 µg/mL (≈ 1.43 µM) and the MIC50 (Finegoldia magna) was 0.25 µg/mL (≈ 0.715 µM). The MIC90 (Finegoldia magna) was 0.25 µg/mL (≈ 0.715 µM), the MIC (Parvimonas micra) was 0.125 µg/mL (≈ 0.358 µM) and the MIC50 (Parvimonas micra) was 0.125 µg/mL (≈ 0.358 µM). It also gave an MIC90 (Parvimonas micra) of 0.125 µg/mL (≈ 0.358 µM), an MIC50 [3] of 0.5 µg/mL (≈ 1.43 µM) and an MIC90 [3] of 2 µg/mL (≈ 5.72 µM). For the same compound, the MIC [4] was 0.03 µg/mL (≈ 0.0858 µM), the MIC50 [4] was 0.06 µg/mL (≈ 0.172 µM) and the MIC50 (Anaerococcus tetradius) was 0.125 µg/mL (≈ 0.358 µM). The MIC90 (Anaerococcus tetradius) was 0.25 µg/mL (≈ 0.715 µM), the MIC (Anaerococcus prevotii) was 0.03 µg/mL (≈ 0.0858 µM) and the MIC50 (Lactobacillus) was > 8 µg/mL. For the same compound, the MIC90 (Lactobacillus) was > 8 µg/mL, the MIC50 (Bifidobacterium) was 0.25 µg/mL (≈ 0.715 µM) and the MIC90 (Bifidobacterium) was 1 µg/mL (≈ 2.86 µM). For the same compound, the MIC (Cutibacterium acnes) was 0.125 µg/mL (≈ 0.358 µM), the MIC50 (Cutibacterium acnes) was 0.125 µg/mL (≈ 0.358 µM) and the MIC90 (Cutibacterium acnes) was 0.25 µg/mL (≈ 0.715 µM). It also gave an MIC (Actinomyces) of 0.25 µg/mL (≈ 0.715 µM), an MIC50 (Actinomyces) of 0.5 µg/mL (≈ 1.43 µM) and an MIC (Eggerthella lenta [5]) of 1 µg/mL (≈ 2.86 µM). The MIC50 (Eggerthella lenta [5]) was 1 µg/mL (≈ 2.86 µM), the MIC90 (Eggerthella lenta [5]) was 1 µg/mL (≈ 2.86 µM) and the MIC50 (Clostridium perfringens) was 0.125 µg/mL (≈ 0.358 µM). It also gave an MIC90 (Clostridium perfringens) of 0.25 µg/mL (≈ 0.715 µM), an MIC (Clostridioides difficile) of 2 µg/mL (≈ 5.72 µM) and an MIC50 (Clostridioides difficile) of 2 µg/mL (≈ 5.72 µM). For the same compound, the MIC90 (Clostridioides difficile) was 4 µg/mL (≈ 11.4 µM), the MIC50 (Clostridium sp.) was 2 µg/mL (≈ 5.72 µM) and the MIC90 (Clostridium sp.) was 4 µg/mL (≈ 11.4 µM). It also gave an MIC (Clostridium tertium) of 1 µg/mL (≈ 2.86 µM), an MIC50 (Clostridium tertium) of 1 µg/mL (≈ 2.86 µM) and an MIC (Thomasclavelia ramosa) of 0.5 µg/mL (≈ 1.43 µM). For the same compound, the MIC (Clostridium cadaveris) was 0.25 µg/mL (≈ 0.715 µM), the MIC [6] was 0.5 µg/mL (≈ 1.43 µM) and the MIC ([Clostridium] innocuum) was 0.25 µg/mL (≈ 0.715 µM). The MIC [7] was 0.125 µg/mL (≈ 0.358 µM), the MIC (Clostridium butyricum) was 0.5 µg/mL (≈ 1.43 µM) and the MIC [8] was 1 µg/mL (≈ 2.86 µM). The MIC50 (Bacteroides fragilis [9]) was 0.125 µg/mL (≈ 0.358 µM), the MIC90 (Bacteroides fragilis [9]) was 0.5 µg/mL (≈ 1.43 µM) and the MIC [10] was 0.25 µg/mL (≈ 0.715 µM). It also gave an MIC50 [10] of 0.25 µg/mL (≈ 0.715 µM), an MIC90 [10] of 0.5 µg/mL (≈ 1.43 µM) and an MIC (Bacteroides ovatus) of 0.25 µg/mL (≈ 0.715 µM). The MIC50 (Bacteroides ovatus) was 0.25 µg/mL (≈ 0.715 µM), the MIC90 (Bacteroides ovatus) was 0.5 µg/mL (≈ 1.43 µM) and the MIC50 (Phocaeicola vulgatus) was 0.5 µg/mL (≈ 1.43 µM). For the same compound, the MIC90 (Phocaeicola vulgatus) was 1 µg/mL (≈ 2.86 µM), the MIC50 [11] was 0.5 µg/mL (≈ 1.43 µM) and the MIC90 [11] was 1 µg/mL (≈ 2.86 µM). For the same compound, the MIC (Bacteroides uniformis) was 0.25 µg/mL (≈ 0.715 µM), the MIC50 (Bacteroides uniformis) was 0.25 µg/mL (≈ 0.715 µM) and the MIC (Bacteroides stercoris) was 0.25 µg/mL (≈ 0.715 µM). For the same compound, the MIC50 (Bacteroides stercoris) was 0.25 µg/mL (≈ 0.715 µM), the MIC50 (Prevotella bivia) was 0.125 µg/mL (≈ 0.358 µM) and the MIC90 (Prevotella bivia) was 0.25 µg/mL (≈ 0.715 µM). For the same compound, the MIC50 (Prevotella buccae) was 0.125 µg/mL (≈ 0.358 µM), the MIC90 (Prevotella buccae) was 0.25 µg/mL (≈ 0.715 µM) and the MIC50 [12] was 0.125 µg/mL (≈ 0.358 µM). For the same compound, the MIC90 [12] was 0.25 µg/mL (≈ 0.715 µM), the MIC50 (Prevotella denticola) was 0.125 µg/mL (≈ 0.358 µM) and the MIC90 (Prevotella denticola) was 0.25 µg/mL (≈ 0.715 µM). It also gave an MIC50 (Prevotella intermedia) of 0.06 µg/mL (≈ 0.172 µM), an MIC90 (Prevotella intermedia) of 0.125 µg/mL (≈ 0.358 µM) and an MIC50 (Prevotella nigrescens) of 0.06 µg/mL (≈ 0.172 µM). It also gave an MIC90 (Prevotella nigrescens) of 0.125 µg/mL (≈ 0.358 µM), an MIC (Prevotella corporis) of 0.03 µg/mL (≈ 0.0858 µM) and an MIC50 (Prevotella corporis) of 0.06 µg/mL (≈ 0.172 µM). The MIC (Prevotella disiens) was 0.03 µg/mL (≈ 0.0858 µM), the MIC50 (Prevotella disiens) was 0.125 µg/mL (≈ 0.358 µM) and the MIC (Tissierella praeacuta) was 2 µg/mL (≈ 5.72 µM). For the same compound, the MIC (Bacteroides fragilis [13]) was 0.06 µg/mL (≈ 0.172 µM), the MIC [14] was 0.06 µg/mL (≈ 0.172 µM) and the MIC (Eggerthella lenta [15]) was 0.06 µg/mL (≈ 0.172 µM). For the same compound, the MIC (Porphyromonas gingivalis) was 0.03 µg/mL (≈ 0.0858 µM).
